Reference: patent publication US20130143929A1, “FUNGICIDAL IMIDAZOLES” (EI DU PONT DE NEMOURS AND COMPANY, priority 2010, published 2013)
Marks after values point to notes of the source that are not given here.

Experiments:
Type in all cases: in vivo
[1] = tested on: Puccinia recondite f. sp. tritici (the causal agent of wheat leaf rust); assay: Test A: wheat leaf rust, preventive spray on wheat seedlings, visual disease rating; settings: for Test A rating (100 = 100% disease control, 0 = no disease control relative to the controls): wheat leaf rust, preventive spray on wheat seedlings
Excerpt: (§1) General protocol for preparing test suspensions for Tests A-D: the test compounds were first dissolved in acetone in an amount equal to 3% of the final volume and then suspended at the desired concentration (in ppm) in acetone and purified water (50/50 mix by volume) containing 250 ppm of the surfactant Trem® 014 (polyhydric alcohol esters). The resulting test suspensions were then used in Tests A-D. Spraying a 200 ppm test suspension to the point of run-off on the test plants was the equivalent of a rate of 800 g/ha.
The test suspension was sprayed to the point of run-off on wheat seedlings. The following day the seedlings were inoculated with a spore suspension of Puccinia recondite f. sp. tritici (the causal agent of wheat leaf rust) and incubated in a saturated atmosphere at 20° C. for 24 h, and then moved to a growth chamber at 20° C. for 7 days, after which time visual disease ratings were made.
(§2) Results for Tests A-E are given in Table A. In the Table, a rating of 100 indicates 100% disease control and a rating of 0 indicates no disease control (relative to the controls). A dash (—) indicates no test results. An asterisk “*” next to the rating value indicates a 40 ppm test suspension was used.

[2] = tested on: Blumeria graminis f. sp. tritici (also known as Erysiphe graminis f. sp. tritici, the causal agent of wheat powdery mildew); assay: Test D: wheat powdery mildew, preventive spray on wheat seedlings, visual disease rating; settings: for Test D rating (100 = 100% disease control, 0 = no disease control relative to the controls): wheat powdery mildew, preventive spray on wheat seedlings
Excerpt: as §1
The test suspension was sprayed to the point of run-off on wheat seedlings. The following day the seedlings were inoculated with a spore dust of Blumeria graminis f. sp. tritici, (also known as Erysiphe graminis f. sp. tritici, the causal agent of wheat powdery mildew) and incubated in a growth chamber at 20° C. for 8 days, after which time visual disease ratings were made.
as §2

[3] = tested on: Septoria tritici (the causal agent of wheat leaf blotch); assay: Test B: wheat leaf blotch, preventive spray on wheat seedlings, visual disease rating; settings: wheat leaf blotch, preventive spray on wheat seedlings
Excerpt: as §1
(§3) The test suspension was sprayed to the point of run-off on wheat seedlings. The following day the seedlings were inoculated with a spore suspension of Septoria tritici (the causal agent of wheat leaf blotch) and incubated in a saturated atmosphere at 24° C. for 48 h, and then moved to a growth chamber at 20° C. for 19 days, after which time visual disease ratings were made.
as §2

[4] = tested on: Botrytis cinerea (the causal agent of tomato Botrytis); assay: Test C: tomato Botrytis, preventive spray on tomato seedlings, visual disease rating; settings: for Test C rating (100 = 100% disease control, 0 = no disease control relative to the controls): tomato Botrytis, preventive spray on tomato seedlings
Excerpt: as §1
as §3, with “tomato” for “wheat”, “Botrytis cinerea” for “Septoria tritici”, “tomato Botrytis)” for “wheat leaf blotch)”, “20°” for “24°”, “24°” for “20°”, “3” for “19”
as §2

[5] = no asterisk (standard test suspension concentration, not 40 ppm)
[6] = asterisk: 40 ppm test suspension
[7] = no asterisk: standard test suspension concentration, 100 = 100% disease control, 0 = no control relative to controls

Structure (SMILES) | Test A rating (100 = 100% disease control, 0 = no disease control relative to the controls) [1, 5] [%] | Test D rating (100 = 100% disease control, 0 = no disease control relative to the controls) [2, 5] [%] | Test B rating (100 = 100% disease control, 0 = no disease control relative to the controls) [3, 5] [%] | Test C rating (100 = 100% disease control, 0 = no disease control relative to the controls) [4, 5] [%] | Test B rating (100 = 100% disease control, 0 = no disease control relative to the controls) [3, 6] | Test A rating (100 = 100% disease control, 0 = no disease control relative to the controls) [1, 6] | Test D rating (100 = 100% disease control, 0 = no disease control relative to the controls) [2, 6] | Test C rating (100 = 100% disease control, 0 = no disease control relative to the controls) [4, 6] | Test A rating (% disease control, wheat leaf rust) [1, 7] [%] | Test D rating (% disease control, wheat powdery mildew) [2, 7] [%] | Test C rating (% disease control, tomato Botrytis) [4, 7] [%]
Cc1nc(Cl)n(-c2c(F)cc(F)cc2Cl)c1C(O)c1ccc(F)cc1F (racemic) [compound 8] | 100 | 100 | 100 | 100 |  |  |  |  |  |  | 
Cc1nc(Cl)n(-c2c(F)cc(F)cc2Cl)c1C(O)c1ccc(F)cc1Cl (racemic) [compound 9] | 100 | 100 | 100 | 100 |  |  |  |  |  |  | 
Cc1nc(Cl)n(-c2ccc(F)cc2Br)c1C(O)c1ccc(Cl)cc1Cl (racemic) [compound 11] | 99 | 0 | 68 | 31 |  |  |  |  |  |  | 
Cc1ncn(-c2c(F)cc(F)cc2Cl)c1C(O)c1ccc(F)cc1F (racemic) [compound 12] | 99 | 21 | 100 | 95 |  |  |  |  |  |  | 
Cc1cc(F)ccc1C(O)c1c(C)nc(Cl)n1-c1c(F)cc(F)cc1Cl (racemic) [compound 13] | 100 | 100 |  | 99 | 100* % |  |  |  |  |  | 
Cc1cc(F)ccc1C(O)c1c(Cl)nc(Cl)n1-c1c(F)cc(F)cc1Cl (racemic) [compound 14] | 100 | 100 |  | 99 | 100* % |  |  |  |  |  | 
Cc1cc(F)ccc1C(O)c1c(C)ncn1-c1c(F)cc(F)cc1Cl (racemic) [compound 15] | 0 | 0 |  | 15 | 0* % |  |  |  |  |  | 
OC(c1c(F)ccc(Br)c1Cl)c1c(Cl)nc(Cl)n1-c1ccc(F)cc1Cl (racemic) [compound 18] | 100 | 91 | 100 | 100 |  |  |  |  |  |  | 
Cc1cc(F)ccc1C(O)c1c(Cl)nc(Cl)n1-c1c(F)cccc1Cl (racemic) [compound 23] | 100 | 100 | 100 | 100 |  |  |  |  |  |  | 
Cc1nc(Cl)n(-c2c(F)cccc2F)c1C(O)c1c(F)cccc1F (racemic) [compound 24] |  |  |  |  | 100* % | 100* % | 91* % | 100* % |  |  | 
Cc1nc(Cl)n(-c2c(F)cccc2F)c1C(O)c1c(F)ccc(Br)c1F (racemic) [compound 25] |  |  |  |  | 100* % | 99* % | 0* % | 87* % |  |  | 
Cc1nc(Cl)n(-c2c(F)cccc2F)c1C(O)c1ccc(F)cc1F (racemic) [compound 26] |  |  |  |  | 100* % | 100* % | 99* % | 100* % |  |  | 
Cc1nc(Cl)n(-c2ccc(F)cc2Cl)c1C(O)c1c(F)cc(F)cc1F (racemic) [compound 30] | 100 | 100 | 100 | 100 |  |  |  |  |  |  | 
Cc1ncn(-c2ccc(F)cc2Cl)c1C(O)c1ccc(Cl)cc1Cl (racemic) [compound 33] | 100 |  | 100 | 100 |  |  | 0* % |  |  |  | 
Cc1nc(Cl)n(-c2ccc(F)cc2Cl)c1C(O)c1c(F)ccc(Br)c1Cl (racemic) [compound 34] | 99 |  | 98 | 99 |  |  |  |  |  |  | 
Cc1nc(Cl)n(-c2ccc(F)cc2F)c1C(O)c1ccc(F)cc1Cl (racemic) [compound 35] | 100 | 68 | 100 | 100 |  |  |  |  |  |  | 
Cc1nc(Cl)n(-c2ccc(Cl)cc2Cl)c1C(O)c1c(F)cc(Cl)cc1F (racemic) [compound 36] | 99 | 0 | 100 | 98 |  |  |  |  |  |  | 
Cc1nc(Cl)n(-c2ccc(Cl)cc2Cl)c1C(O)c1c(F)ccc(Br)c1Cl (racemic) [compound 37] | 98 | 21 | 100 | 91 |  |  |  |  |  |  | 
Cc1nc(Cl)n(-c2ccc(F)cc2F)c1C(O)c1c(F)ccc(I)c1F (racemic) [compound 38] | 99 | 0 | 95 | 7 |  |  |  |  |  |  | 
COc1cc(F)c(C(O)c2c(Br)ncn2-c2ccc(F)cc2Cl)c(F)c1 (racemic) [compound 232] |  |  |  |  | 59* % | 100* % | 0* % |  |  |  | 
COc1cc(F)c(-n2c(C(O)c3ccc(F)cc3F)cnc2C)c(F)c1 (stereo not drawn) [compound 404] |  |  |  |  |  |  |  |  | 98 | 0 | 0
